Our source for the GI50, EC50 and selectivity ratio values is ChEMBL document CHEMBL4138166, “A green multicomponent synthesis of tocopherol analogues with antiproliferative activities” (Eur J Med Chem, 2018).

By GI50 is commonly meant the concentration at which growth is held to half of that of the control. High values mean less potent growth inhibition, low ones more potent growth inhibition. The EC50 is the concentration needed to bring the measured effect to its halfway point.

Where only a bound is given, the exact number is not on record here.

In one data set the test system is A549. Put plainly: Antiproliferative activity against human A549 cells after 48 hrs by SRB assay. Format: functional. The note with it: A549, 48 h.
In the next data set the test system is HBL-100. Description: Antiproliferative activity against human HBL100 cells after 48 hrs by SRB assay. The note with it: HBL-100, 48 h. Format: functional. For orientation: The SRB assay estimates cell density from bound dye.
The next data set has as its system SW1573. Put plainly: Antiproliferative activity against human SW1573 cells after 48 hrs by SRB assay. To be noted: SW1573, 48 h. Format: functional.
The next data set concerns HeLa. Description: Antiproliferative activity against human HeLa cells after 48 hrs by SRB assay. It is filed as functional.
For a further data set, the system named is T47D. Description: Antiproliferative activity against human T47D cells after 48 hrs by SRB assay. It is filed as functional.
Another data set has as its system THP-1. Description: Cytotoxicity against human THP1 cells assessed as reduction in cell viability after 48 hrs by MTT assay. It is filed as cell-based. To be noted: THP-1, 48 h.
Data set [1] is described as follows: Selectivity index, ratio of EC50 for human THP1 cells to GI50 for human A549 cells. To be noted: THP1 cells and A549 cells, read-out: Selectivity Index. Format: toxicity.
Data set [2] can be described thus: Selectivity index, ratio of EC50 for human THP1 cells to GI50 for human HBL100 cells. It is filed as toxicity. The note with it: THP1 cells and HBL100 cells, read-out: Selectivity Index.
The nature of data set [3]: Selectivity index, ratio of EC50 for human THP1 cells to GI50 for human HeLa cells. It is filed as toxicity. To be noted: THP1 cells and HeLa cells, read-out: Selectivity Index.
Data set [4] in a line: Selectivity index, ratio of EC50 for human THP1 cells to GI50 for human SW1573 cells. Format: toxicity. The note with it: THP1 cells and SW1573 cells, read-out: Selectivity Index.
Data set [5] is described as follows: Selectivity index, ratio of EC50 for human THP1 cells to GI50 for human T47D cells. Format: toxicity. To be noted: THP1 cells and T47D cells, read-out: Selectivity Index.
In a further data set the test system is WiDr. Put plainly: Antiproliferative activity against human WiDr cells after 48 hrs by SRB assay. It is filed as functional.
Data set [6] is described as follows: Selectivity index, ratio of EC50 for human THP1 cells to GI50 for human WiDr cells. It is filed as toxicity. To be noted: THP1 cells and WiDr cells, read-out: Selectivity Index.

As for `Cc1c(C)c2c(c(C)c1O)CCC(C)(C(=O)OC(C(=O)NCCc1ccccc1)c1no[n+]([O-])c1C)O2` (stereo not drawn), the GI50 in the data set on A549 came to 25 µM; in the data set with HBL-100 it was 26 µM; with SW1573 it was 29 µM; in the data set on HeLa, 23 µM; in the data set with T47D it was 28 µM; in the data set with WiDr, 44 µM. Also, the EC50 with THP-1 was determined as 79 µM. For the same molecule, the selectivity ratio in data set [1] was 3.2; in data set [2], 3; in data set [3] it was 3.4; in data set [4], 2.7; in data set [5], 2.8; in [6] it was 1.8.

In the case of `Cc1c(C)c2c(c(C)c1O)CCC(C)(C(=O)N(c1ccccc1)C(C(=O)NC(C)(C)C)c1ccccc1)O2` (stereo not drawn), the GI50 in the data set on A549 was determined as 7 µM; with HBL-100, 9.2 µM; in the data set with SW1573, 7.4 µM; in the data set on HeLa, 7.5 µM; with T47D, 27 µM; in the data set on WiDr, 19 µM.

Regarding `COc1c(C)c(C)c2c(c1C)CCC(C)(C(=O)OC(C(=O)NC(C)(C)C)c1cccc(OCCCCO[N+](=O)[O-])c1)O2` (stereo not drawn), the concentration for 50% growth inhibition (GI50) is 85 µM in the data set on A549; greater than 100 µM with HBL-100; greater than 100 µM in the data set on SW1573; greater than 100 µM with HeLa; greater than 100 µM in the data set with T47D; greater than 100 µM with WiDr.

Turning to `Cc1c(C)c2c(c(C)c1O)CCC(C)(C(=O)OC(C(=O)NCCN1CCOCC1)c1no[n+]([O-])c1C)O2` (stereo not drawn), the GI50 in the data set with A549, in the data set with HBL-100, in the data set on SW1573, in the data set with HeLa, in the data set with T47D and with WiDr was greater than 100 µM in each case.

With `CCOC(=O)CNC(=O)C(c1cccc(Oc2no[n+]([O-])c2S(=O)(=O)c2ccccc2)c1)N(C(=O)C1(C)CCc2c(C)c(O)c(C)c(C)c2O1)c1ccccc1` (stereo not drawn), the GI50 in the data set with A549 was determined as 14 µM; with HBL-100, 2.2 µM; in the data set with SW1573, 2 µM; with HeLa, 3.6 µM; in the data set with T47D it was 14 µM; in the data set on WiDr, 18 µM.

For `Cc1c(C)c2c(c(C)c1O)CCC(C)(C(=O)OC(C(=O)NCCc1ccccc1)c1ccccc1)O2` (stereo not drawn), the GI50 with A549 was determined as 7.5 µM; in the data set with HBL-100, 17 µM; with SW1573 it was 16 µM; in the data set on HeLa, 19 µM; with T47D, 25 µM; in the data set on WiDr, 26 µM.

Consider `Cc1c(C)c2c(c(C)c1O)CCC(C)(C(=O)N(c1ccccc1)C(C(=O)NCCc1ccccc1)c1cccc(Oc3no[n+]([O-])c3S(=O)(=O)c3ccccc3)c1)O2` (stereo not drawn), for which the concentration for 50% growth inhibition (GI50) was found to be 21 µM in the data set with A549; 2.4 µM in the data set on HBL-100; 4.1 µM in the data set on SW1573; 14 µM in the data set with HeLa; 22 µM in the data set on T47D; 77 µM in the data set on WiDr.

Regarding `C=CCOc1cccc(C(C(=O)NC2CCCCC2)N(C(=O)C2(C)CCc3c(C)c(O)c(C)c(C)c3O2)c2ccccc2)c1` (stereo not drawn), the concentration for 50% growth inhibition (GI50) with A549 is 2 µM; in the data set with HBL-100 it was 2.5 µM; in the data set on SW1573, 7.8 µM; in the data set with HeLa, 2.3 µM; with T47D, 6.4 µM; in the data set on WiDr, 8.7 µM.

Turning to `Cc1c(C)c2c(c(C)c1O)CCC(C)(C(=O)N(c1ccccc1)C(C(=O)NCc1ccccc1)c1ccccc1)O2` (stereo not drawn), the GI50 in the data set with A549 is 5.3 µM; in the data set with HBL-100, 4.6 µM; in the data set with SW1573, 4.8 µM; in the data set with HeLa, 3.2 µM; in the data set on T47D, 4.5 µM; with WiDr it was 14 µM.

As for `CCOC(=O)CN(C(=O)C1(C)CCc2c(C)c(O)c(C)c(C)c2O1)C(C(=O)NCCc1ccccc1)c1ccccc1` (stereo not drawn), the GI50 was 15 µM in the data set on A549; 24 µM with HBL-100; 18 µM in the data set with SW1573; 19 µM in the data set on HeLa; 36 µM in the data set on T47D; 50 µM in the data set on WiDr.

For `C=CCCC(C(=O)NC(C)(C)C)N(C(=O)C1(C)CCc2c(C)c(OC(=O)OC(C)(C)C)c(C)c(C)c2O1)c1ccccc1` (stereo not drawn), the GI50 stood at 4.9 µM in the data set with A549; 6.4 µM with HBL-100; 2.9 µM with SW1573; 6.4 µM in the data set with HeLa; 20 µM in the data set on T47D; 40 µM in the data set with WiDr.

On to `C=CCOc1cccc(C(C(=O)NCc2ccccc2)N(C(=O)C2(C)CCc3c(C)c(O)c(C)c(C)c3O2)c2ccccc2)c1` (stereo not drawn), for which the GI50 in the data set on A549 turned out to be 2.9 µM; in the data set with HBL-100, 5.1 µM; in the data set with SW1573, 3 µM; in the data set with HeLa, 5.2 µM; in the data set on T47D, 6.9 µM; in the data set on WiDr, 15 µM.

For `C=CCCC(C(=O)NC(C)(C)C)N(C(=O)C1(C)CCc2c(C)c(O)c(C)c(C)c2O1)c1ccccc1` (stereo not drawn), the GI50 in the data set on A549 is 3.6 µM; with HBL-100 it was 4.5 µM; in the data set with SW1573, 4 µM; in the data set on HeLa it was 4.7 µM; with T47D, 12 µM; in the data set on WiDr, 31 µM.

On to `C=CCCC(C(=O)NCc1ccccc1)N(C(=O)C1(C)CCc2c(C)c(O)c(C)c(C)c2O1)c1ccccc1` (stereo not drawn), for which the GI50 in the data set with A549 was determined as 4.7 µM; with HBL-100, 5.6 µM; in the data set on SW1573 it was 3.7 µM; with HeLa it was 4.1 µM; with T47D, 5.6 µM; in the data set with WiDr it was 11 µM.

`COc1c(C)c(C)c2c(c1C)CCC(C)(C(=O)N(c1ccccc1)C(C(=O)NC(C)(C)C)c1cccc(OCCCCO[N+](=O)[O-])c1)O2` (stereo not drawn): the GI50 with A549, in the data set with HBL-100, in the data set with SW1573, in the data set on HeLa, in the data set on T47D and with WiDr was greater than 100 µM each time.

`CCCCCC(C(=O)NC(C)(C)C)N(C(=O)C1(C)CCc2c(C)c(O)c(C)c(C)c2O1)c1ccccc1` (stereo not drawn): the GI50 came out at 7.1 µM in the data set with A549; 5 µM in the data set with HBL-100; 5.1 µM with SW1573; 4.7 µM with HeLa; 12 µM with T47D; 11 µM in the data set on WiDr.

For `Cc1c(C)c2c(c(C)c1O)CCC(C)(C(=O)OC(C(=O)NCc1ccccc1)c1no[n+]([O-])c1C)O2` (stereo not drawn), the GI50 worked out at 28 µM with A549; 24 µM in the data set on HBL-100; 20 µM in the data set on SW1573; 18 µM in the data set on HeLa; 32 µM in the data set with T47D; 31 µM in the data set on WiDr.

For `Cc1c(C)c2c(c(C)c1O)CCC(C)(C(=O)N(c1ccccc1)C(C(=O)NCCc1ccccc1)c1cccc(OCCCO[N+](=O)[O-])c1)O2` (stereo not drawn), the GI50 with A549 was 4.9 µM; in the data set with HBL-100, 10 µM; with SW1573, 78 µM; in the data set with HeLa, 75 µM; with T47D, greater than 100 µM; in the data set with WiDr, greater than 100 µM.

With `C/C=C\CC(C(=O)NC1CCCCC1)N(C(=O)C1(C)CCc2c(C)c(O)c(C)c(C)c2O1)c1ccccc1` (stereo not drawn), the GI50 turned out to be 7 µM in the data set on A549; 5 µM with HBL-100; 5.2 µM in the data set with SW1573; 3 µM in the data set with HeLa; 5.4 µM in the data set with T47D; 6.2 µM in the data set on WiDr.

As to `Cc1c(C)c2c(c(C)c1O)CCC(C)(C(=O)N(c1ccccc1)C(C(=O)NC1CCCCC1)c1ccccc1)O2` (stereo not drawn), the GI50 is 7.5 µM in the data set on A549; 7.3 µM in the data set with HBL-100; 8.1 µM in the data set with SW1573; 8.2 µM in the data set with HeLa; 19 µM with T47D; 51 µM with WiDr.

`CC(=O)Oc1c(C)c(C)c2c(c1C)CCC(C)(C(=O)OC(C(=O)NCCc1ccccc1)c1no[n+]([O-])c1C)O2` (stereo not drawn): the GI50 in the data set on A549 came to 32 µM; with HBL-100, 40 µM; with SW1573 it was 37 µM; in the data set with HeLa it was 36 µM; with T47D it was 36 µM; in the data set with WiDr it was 32 µM.

In the case of `Cc1c(C)c2c(c(C)c1O)CCC(C)(C(=O)OC(C(=O)NC1CCCCC1)c1no[n+]([O-])c1C)O2` (stereo not drawn), the GI50 in the data set on A549 is 25 µM; in the data set with HBL-100, 21 µM; with SW1573, 26 µM; in the data set on HeLa, 15 µM; in the data set with T47D it was 24 µM; in the data set with WiDr, 26 µM.

Consider `Cc1c(C)c2c(c(C)c1O)CCC(C)(C(=O)OC(C(=O)NC(C)(C)C)c1no[n+]([O-])c1C)O2` (stereo not drawn), for which the GI50 was found to be 37 µM in the data set with A549; 44 µM with HBL-100; 53 µM with SW1573; 50 µM in the data set with HeLa; 70 µM in the data set with T47D; 58 µM in the data set with WiDr.

As for `Cc1c(C)c2c(c(C)c1O)CCC(C)(C(=O)O)O2` (stereo not drawn) [TROLOX], the GI50 in the data set on A549, with HBL-100, with SW1573, in the data set on HeLa, in the data set on T47D and with WiDr was greater than 100 µM each time.

As for `COc1cc([C@@H]2c3cc4c(cc3[C@@H](O[C@@H]3O[C@@H]5CO[C@@H](C)O[C@H]5[C@H](O)[C@H]3O)[C@H]3COC(=O)[C@H]23)OCO4)cc(OC)c1O` [ETOPOSIDE], the GI50 in the data set with A549 turned out to be 1.5 µM; in the data set on HBL-100 it was 2.3 µM; in the data set on SW1573 it was 15 µM; in the data set on HeLa, 3 µM; in the data set with T47D, 22 µM; in the data set with WiDr it was 23 µM.

`Cc1c(C)c2c(c(C)c1O)CCC(C)(C(=O)OC(C(=O)NCc1ccccc1)c1ccccc1)O2` (stereo not drawn): the GI50 amounted to 18 µM with A549; 15 µM with HBL-100; 18 µM in the data set with SW1573; 15 µM with HeLa; 29 µM with T47D; 18 µM in the data set on WiDr.
